Measured values from patent US20130005824A1, “TREATMENT OF ISCHEMIC TISSUE” (The Research Foundation of State University of New York, priority 2009, published 2013).
Where two headings read alike, the source gives them in different places.

Columns and labels:
[1] = test system: hamster cheek pouch arterioles (arcade arteriole and terminal arteriolar feed); assay: Microvascular response (arteriolar diameter change) to locally applied curcumin in hamster cheek pouch tissue, intravital microscopy; assay type: in vivo; conditions: for EC50: Mesocricetus auratus
rat comb burn model = assay: Burn injury progression in the rat hot comb burn model, intravenous curcumin; assay type: in vivo; conditions: for interspaces that progressed to full thickness necrosis, histologic analysis: day 7, control 67%
Procedure: In this study, we determined the effects of curcumin on burn progression in the rat hot comb model. […] Pure curcumin (99.9% as determined by HPLC and mass spectroscopy analysis) produced under GMP was acquired from ChromaDex, Inc for the studies described below.
Animals were randomized to receive one of six intravenous doses of curcumin (0.3, 1.0, 3.0, 10, 30, or 100 μg/kg) in 1 ml of phosphate buffered saline (PBS) or PBS alone (buffer control) administered via the tail vein at 1 and 24 hours after injury. […] Full-thickness biopsies from the interspaces 7 days after injury were evaluated for evidence of necrosis after H&E staining. The percentages of interspaces that progressed to necrosis were compared with chi-squared (χ2) tests. At the seventh day, the number of interspaces that processed to full thickness necrosis was 67% for control, 58, 53, 37, 63, 53, and 26% for 0.1, 0.3, 1, 3, 10, 30 and 100 μg/kg curcumin respectively as determined by histologic analysis. Similar results were obtained for the macroscopic evaluation at day 2, 5, and 7. […] The same experiment was repeated a second time and gave essentially the same results.

[2] = curcumin alone, similar for arcade and feed

With `COc1cc(/C=C/C(=O)CC(=O)/C=C/c2ccc(O)c(OC)c2)ccc1O` [curcumin, (E,E)-1,7-bis (4-hydroxy-3-methoxyphenyl)-1,6-heptadiene-3,5,-dione] the “curcumin-induced dilation remaining with LNNA” value ([1]; 10^−4M LNNA, curcumin 10^−10 though 10^−7 M) was “significant curcumin-induced dilation remained”, the “curcumin-induced dilation remaining with LNNA” value ([1]; 10^−5M LNNA, 10^−12 to 10^−10 M curcumin) was “a significant dilation remained” and the “curcumin-induced dilation with LNNA” value ([1]; 10^−5M LNNA, terminal feed arterioles, similar pattern in arcade) was “attenuated”. The EC50 ([1]; curcumin alone, micropipette 60 s, similar for arcade and feed, read-out: logEC50 for dilation (converted)) was 0.316 nM, the EC50 ([1]; curcumin alone, similar for arcade and feed, read-out: logEC50 for constriction (converted)) was 3.98 nM and the EC50 ([1]; phentolamine 10^−5 M, constrictor component removed, read-out: logEC50, dilation to curcumin with phentolamine (converted)) was 0.1 ± 0.004 nM. For the same compound, the EC50 ([1]; propranolol 10^−5 M, dilation component removed, read-out: logEC50, constriction to curcumin with propranolol (converted)) was 0.01 nM, the “effect of simultaneous PD142893 on the curcumin response” value ([1]; PD142893 (endothelin antagonist) 10^−5 M) was “no effect” and the “effect of PD142893 on maximal dilation and constriction to curcumin” value ([1]; PD142893 (endothelin antagonist), no effect on baseline diameters) was “diminished the maximal dilation and enhanced the maximal constriction”. The “curcumin-induced dilation with cAMP blockade” value ([1]; Rp-8-br-cAMPS, curcumin 10^−6M, arcade, but not terminal arterioles) was “significantly suppressed”, the “curcumin-induced constriction with cAMP blockade” value ([1]; Rp-8-br-cAMPS, curcumin 10^−8M, arcade, but not terminal arterioles) was “attenuated” and the “curcumin-induced dilation with cGMP blockade” value ([1]; Rp-8-br-cGMPS, terminal and arcade arterioles) was “prevented all curcumin-induced dilation”. For the same compound, the “local response after microvascular preconditioning” value ([1]; after deliberate microvascular preconditioning) was “predominantly constriction”, the “effect of simultaneous atropine on the curcumin response” value ([1]; atropine (muscarinic antagonist) 10^−7 M) was “no effect” and the “effect of atropine on maximal dilation and constriction to curcumin” value ([1]; atropine (muscarinic antagonist), no effect on baseline diameters) was “diminished the maximal dilation and enhanced the maximal constriction”. For the same compound, the “constrictor and dilatory (cGMP and cAMP mediated) responses before and after repeated exposure (potential cytotoxicity)” value ([1]; baseline diameter recovery and tone after repeated 60 second exposures) was “unchanged”, the “terminal arteriole diameter, 60 second time-course” value ([1]; curcumin 10^−6M continuously applied) was “initial vasodilation at 20 seconds was followed by vasoconstriction that peaked at 60 seconds” and the “terminal arteriole diameter, 60 second time-course” value ([1]; curcumin 10^−10M continuously applied) was “sustained dilation”. The “response to curcumin with propranolol and phentolamine together” value ([1]; curcumin 10^−10 M, 10^−8M and 10^−6M, terminal and arcade arterioles) was “blocked all response”, the peak constriction [1, 2] was −15±5% and the peak dilation [1, 2] was “+40±8%”. The “peak dilation, terminal versus arcade arterioles” value ([1]; dose-response 10^−13M to 10^−3M, 20 s and 60 s) was “significantly greater for terminal arterioles than for arcade arterioles”, the “concentration inducing vasodilation after versus before preconditioning” value ([1]; in vivo studies to date, after preconditioning) was “lower concentrations” and the “effect on arteriolar diameter during induced endothelial dysfunction” value ([1]; nitro-arginine added to the tissue bath) was “the dilation component was potentiated and constriction was attenuated”. For the same compound, the “peak dilation to curcumin with phentolamine, arcade” value ([1]; phentolamine 10^−5 M, arcade arteriole) was “+34±9”, the “peak dilation to curcumin with phentolamine, feed” value ([1]; phentolamine 10^−5 M, terminal feed arteriole) was “+65 +10” and the “peak constriction to curcumin with propranolol” value ([1]; propranolol 10^−5 M) was −30 ±7%. For the same compound, the “constriction response to curcumin with phentolamine” value ([1]; terminal arteriole, phentolamine 10^−5M) was “abolished”, the “dilation response to curcumin with propranolol” value ([1]; terminal arteriole, propranolol 10^−5M) was “abolished” and the “progression to necrosis compared to control” value (rat comb burn model; 3 μg/kg and 100 μg/kg i.v., p<0.01, macroscopic evaluation and histologic analysis) was “significantly less progression to necrosis”. For the same compound, the “interspaces that progressed to full thickness necrosis, histologic analysis” value (rat comb burn model; fifth value listed (30 μg/kg by method)) was 53%, the “interspaces that progressed to full thickness necrosis, histologic analysis” value (rat comb burn model; fourth value listed (10 μg/kg by method)) was 63% and the “interspaces that progressed to full thickness necrosis, histologic analysis” value (rat comb burn model; i.v. at 1 and 24 h after injury, first value listed (0.3 μg/kg by method, 0.1 μg/kg by the sentence)) was 58%. For the same compound, the “interspaces that progressed to full thickness necrosis, histologic analysis” value (rat comb burn model; last value listed (100 μg/kg)) was 26%, the “interspaces that progressed to full thickness necrosis, histologic analysis” value (rat comb burn model; second value listed (1 μg/kg by method)) was 53% and the “interspaces that progressed to full thickness necrosis, histologic analysis” value (rat comb burn model; third value listed (3 μg/kg by method)) was 37%.
